Source: publication PMC7413516, “Antidepressant-like activity and safety profile evaluation of 1H-imidazo[2,1-f]purine-2,4(3H,8H)-dione derivatives as 5-HT1A receptor partial agonists” (PLoS ONE, 2020)
Several values for one entry are separate records, joined by “and”; a condition that tells them apart may be missing. Identical values can stand only once.

Legend:
[1] = target: serotonergic 5-HT1A receptor (5-HT1AR); design: method as in PMID 27353547; conditions: ref [8]; cited from earlier work
[2] = system: adrenergic α1 receptors (α1R); test: Pressor response to methoxamine in anesthetized normotensive rats (adrenolytic activity); type: in vivo, Wistar rats; conditions: 10 mg/kg
Procedure: In a separate series of experiments on anesthetized normotensive rats, the effect of studied compounds on the pressor response to methoxamine (Sigma Aldrich) (150 μg/kg) was investigated. Pressor responses to methoxamine injected intravenously were measured before and 30 min after the administration of the tested compound. The amplitudes of the pressure values were measured in 4 independent experiments.

normotensive rats = test: Blood pressure measurement in normotensive anesthetized rats; type: in vivo, Wistar rats; conditions: for DBP Mean / SBP Mean: group mean; for DBP / SBP: individual rat
Procedure: Male Wistar normotensive rats were anesthetized with thiopental (50–75 mg/kg, i.p.). The right carotid artery was cannulated with a polyethylene tube filled with heparin in saline to facilitate pressure measurement using the Datamax apparatus (Columbus Instruments, Columbus, Ohio, USA). The studied compounds were administered after a 15-min stabilization period.

[3] = Body weight measurement in the 17-day experiment; type: in vivo, Swiss albino mice; conditions: for body weight Mean / body weight: mouse, 1.25 mg/kg
Procedure: (§1) The Swiss albino mice were used in the experiment. AZ-853 and AZ-861 were injected once daily for 16 consecutive days. On the 1st and 15th day the administration of the compounds, 18-h spontaneous animal activity was registered (see below). FST, as described earlier, was performed on the 14th day just before the next treatment. To ensure that the effects observed in FST are not the result of increased motility of animals, on the 13th day, just before the next administration, the locomotor activity was measured as described earlier, from 2 to 6 min after test start, i.e. in the period identical to the duration of FST. Blood and organ collection was performed on the 17th day at 24 h after the last dose and fasting.
The body weight was measured daily immediately prior to administration of the drugs. On the 17th day, the blood was collected from the Swiss albino mice sacrificed by decapitation 20 min after i.p. administration of heparin (2500 units/mouse) and then centrifuged at 600 × g (15 min, 4°C) to separate plasma. The liver, heart, and kidney were also collected and weighed.

mice = test: Forced swim test (FST) in mice; type: in vivo, Swiss albino mice
Excerpt: The investigated compounds AZ-853 (8-(4-(4-(2-fluorophenyl)piperazin-1-yl)butyl)-1,3-dimethyl-1H-imidazo[2,1-f]purine-2,4(3H,8H)-dione and AZ-861 (1,3-dimethyl-8-(4-(4-(3-(trifluoromethyl)phenyl)piperazin-1-yl)butyl)-1H-imidazo[2,1-f]purine-2,4(3H,8H)-dione) were synthesised in the Department of Medicinal Chemistry, Faculty of Pharmacy, Jagiellonian University, and their synthesis was described earlier. AZ-853 and AZ-861 were suspended in 1% aqueous solution of Tween 80, and WAY-100635 (Sigma, Germany) was dissolved in 0.9% saline. In acute experiments, the selected compounds AZ-853 (0.156–2.5 mg/kg) and AZ-861 (0.625–2.5 mg/kg) were injected i.p. once 60 min before tests, whereas WAY-100635 (0.3 mg/kg) was administered subcutaneously (s.c.) 45 min before the test. […] In chronic experiments, AZ-853 and AZ-861 were administered i.p. once a day (between 9:00 AM and 10:00 AM) for 16 consecutive days at the minimum active doses selected from FST experiment, i.e. 0.625 and 1.25 mg/kg, respectively. All compounds were administered to mice at a volume of 10 ml/kg and to rats at a volume of 2 ml/kg. The control groups received 1% aqueous solution of Tween 80.
The experiment was carried out according to the method of Porsolt et al.. Swiss albino mice were individually placed in a glass cylinder (25 cm high; 10 cm in diameter) containing 10 cm of water maintained at 23–25°C, and were left there for 6 min. The total duration of immobility was recorded during the last 4 min of a 6-min. A mouse was regarded as immobile when it remained floating on the water, making only small movements to keep its head above it.
as §1

In the case of `Cn1c(=O)c2c(nc3n(CCCCN4CCN(c5cccc(C(F)(F)F)c5)CC4)ccn23)n(C)c1=O` [AZ-861, 1,3-dimethyl-8-(4-(4-(3-(trifluoromethyl)phenyl)piperazin-1-yl)butyl)-1H-imidazo[2,1-f]purine-2,4(3H,8H)-dione], the Ki [1] is listed as 0.2 nM, the “reversal of the effect of methoxamine” value [2] is listed as “approximately 40%” and the “mean reduction of blood pressure vs. methoxamine alone” value ([2]; 30 min prior to methoxamine 150 μg/kg) is listed as 40.45 mmHg. The “effect on arterial pressure” value (normotensive rats; 10 mg/kg) was “did not significantly affect the arterial pressure”, the “DBP Mean” value (normotensive rats; time 0 min) was 86.8 mmHg and the “SBP Mean” value (normotensive rats; time 0 min) was 124.2 mmHg. For the same molecule, the DBP (normotensive rats; time 0 min) was 74 mmHg and 91 mmHg and 79 mmHg and 94 mmHg and 89 mmHg, the SBP (normotensive rats; time 0 min) was 113 mmHg and 124 mmHg and 105 mmHg and 134 mmHg and 135 mmHg and the “DBP Mean” value (normotensive rats; time 5 min) was 87.2 mmHg. The “SBP Mean” value (normotensive rats; time 5 min) was 122.2 mmHg, the DBP (normotensive rats; time 5 min) was 91 mmHg and 76 mmHg and 84 mmHg and 93 mmHg and 98 mmHg and 81 mmHg and the SBP (normotensive rats; time 5 min) was 122 mmHg and 101 mmHg and 119 mmHg and 139 mmHg and 138 mmHg and 114 mmHg. The “DBP Mean” value (normotensive rats; time 10 min) was 86.8 mmHg, the “SBP Mean” value (normotensive rats; time 10 min) was 122.3 mmHg and the DBP (normotensive rats; time 10 min) was 90 mmHg and 76 mmHg and 87 mmHg and 98 mmHg and 80 mmHg. The SBP (normotensive rats; time 10 min) was 120 mmHg and 102 mmHg and 124 mmHg and 139 mmHg and 136 mmHg and 113 mmHg, the “DBP Mean” value (normotensive rats; time 15 min) was 86.2 mmHg and the “SBP Mean” value (normotensive rats; time 15 min) was 123.3 mmHg. For the same molecule, the DBP (normotensive rats; time 15 min) was 90 mmHg and 77 mmHg and 89 mmHg and 94 mmHg, the SBP (normotensive rats; time 15 min) was 120 mmHg and 103 mmHg and 137 mmHg and 138 mmHg and 131 mmHg and 111 mmHg and the “DBP Mean” value (normotensive rats; time 20 min) was 85.8 mmHg. For the same molecule, the “SBP Mean” value (normotensive rats; time 20 min) was 121.8 mmHg, the DBP (normotensive rats; time 20 min) was 89 mmHg and 76 mmHg and 91 mmHg and 87 mmHg and 94 mmHg and the SBP (normotensive rats; time 20 min) was 118 mmHg and 100 mmHg and 138 mmHg and 139 mmHg and 128 mmHg and 109 mmHg. For the same molecule, the “DBP Mean” value (normotensive rats; time 30 min) was 86.5 mmHg, the “SBP Mean” value (normotensive rats; time 30 min) was 124.2 mmHg and the DBP (normotensive rats; time 30 min) was 88 mmHg and 77 mmHg and 93 mmHg and 89 mmHg and 94 mmHg and 74 mmHg. For the same molecule, the SBP (normotensive rats; time 30 min) was 119 mmHg and 101 mmHg and 136 mmHg and 139 mmHg and 128 mmHg and 108 mmHg, the “DBP Mean” value (normotensive rats; time 40 min) was 85.5 mmHg and the “SBP Mean” value (normotensive rats; time 40 min) was 122.0 mmHg. The DBP (normotensive rats; time 40 min) was 88 mmHg and 76 mmHg and 92 mmHg and 95 mmHg and 75 mmHg, the SBP (normotensive rats; time 40 min) was 122 mmHg and 106 mmHg and 134 mmHg and 136 mmHg and 128 mmHg and 108 mmHg and the “DBP Mean” value (normotensive rats; time 50 min) was 85.7 mmHg. For the same molecule, the “SBP Mean” value (normotensive rats; time 50 min) was 122.3 mmHg, the DBP (normotensive rats; time 50 min) was 96 mmHg and 81 mmHg and 89 mmHg and 84 mmHg and 93 mmHg and 77 mmHg and the SBP (normotensive rats; time 50 min) was 134 mmHg and 110 mmHg and 130 mmHg and 135 mmHg and 125 mmHg. For the same molecule, the “DBP Mean” value (normotensive rats; time 60 min) was 86.7 mmHg, the “SBP Mean” value (normotensive rats; time 60 min) was 124.0 mmHg and the DBP (normotensive rats; time 60 min) was 98 mmHg and 83 mmHg and 88 mmHg and 82 mmHg and 93 mmHg and 75 mmHg. The SBP (normotensive rats; time 60 min) was 135 mmHg and 112 mmHg and 129 mmHg and 126 mmHg and 108 mmHg, the “DBP Mean” value (normotensive rats; time 70 min) was 86.3 mmHg and the “SBP Mean” value (normotensive rats; time 70 min) was 123.7 mmHg. For the same molecule, the DBP (normotensive rats; time 70 min) was 96 mmHg and 86 mmHg and 80 mmHg and 93 mmHg and 77 mmHg, the SBP (normotensive rats; time 70 min) was 134 mmHg and 115 mmHg and 127 mmHg and 128 mmHg and 125 mmHg and 113 mmHg and the “DBP Mean” value (normotensive rats; time 80 min) was 86.8 mmHg. The “SBP Mean” value (normotensive rats; time 80 min) was 124.5 mmHg, the DBP (normotensive rats; time 80 min) was 97 mmHg and 87 mmHg and 86 mmHg and 82 mmHg and 93 mmHg and 76 mmHg and the SBP (normotensive rats; time 80 min) was 134 mmHg and 115 mmHg and 126 mmHg and 131 mmHg and 125 mmHg and 116 mmHg. The “effect on body weight” value ([3]; mice, repeated i.p. once daily, AZ-853 0.625 mg/kg (from 10th day), AZ-861 1.25 mg/kg (2nd, 3rd, 4th day)) was “slight and significant decrease in body weight”, the “body weight Mean” value ([3]; day 1, group mean) was 23.19 g and the body weight ([3]; day 1, individual mouse) was 20.6 g and 21.8 g and 22.1 g and 24.2 g and 24.0 g and 23.4 g and 23.1 g and 24.9 g and 26.3 g and 21.5 g. The “body weight Mean” value ([3]; day 2, group mean) was 23.05 g, the body weight ([3]; day 2, individual mouse) was 20.7 g and 22.8 g and 22.6 g and 24.2 g and 23.5 g (2×) and 23.1 g and 23.6 g and 24.9 g and 21.6 g and the “body weight Mean” value ([3]; day 3, group mean) was 23.20 g. For the same molecule, the body weight ([3]; day 3, individual mouse) was 21.0 g (2×) and 22.0 g and 23.0 g and 24.0 g (5×) and 25.0 g, the “body weight Mean” value ([3]; day 4, group mean) was 23.30 g and the body weight ([3]; day 4, individual mouse) was 22.0 g (2×) and 23.0 g (3×) and 21.0 g and 24.0 g (2×) and 25.0 g and 26.0 g. For the same molecule, the “body weight Mean” value ([3]; day 5, group mean) was 23.70 g, the body weight ([3]; day 5, individual mouse) was 21.6 g and 22.5 g and 22.7 g and 24.5 g and 24.0 g and 23.5 g and 24.9 g and 26.3 g and 25.9 g and 21.1 g and the “body weight Mean” value ([3]; day 6, group mean) was 23.76 g. For the same molecule, the body weight ([3]; day 6, individual mouse) was 21.6 g (2×) and 22.1 g and 22.6 g and 25.1 g and 24.3 g and 23.0 g and 25.3 g and 25.6 g and 26.4 g, the “body weight Mean” value ([3]; day 7, group mean) was 23.90 g and the body weight ([3]; day 7, individual mouse) was 22.0 g (3×) and 23.0 g and 25.0 g (2×) and 24.0 g (2×) and 26.0 g (2×). For the same molecule, the “body weight Mean” value ([3]; day 8, group mean) was 24.10 g, the body weight ([3]; day 8, individual mouse) was 23.0 g (3×) and 25.0 g (2×) and 24.0 g (2×) and 26.0 g (2×) and 22.0 g and the “body weight Mean” value ([3]; day 9, group mean) was 24.40 g. The body weight ([3]; day 9, individual mouse) was 23.0 g (4×) and 26.0 g (3×) and 25.0 g (2×) and 24.0 g, the “body weight Mean” value ([3]; day 10, group mean) was 24.31 g and the body weight ([3]; day 10, individual mouse) was 22.5 g and 23.1 g (2×) and 25.2 g and 24.7 g and 24.0 g and 25.0 g and 26.6 g and 26.8 g and 22.1 g. The “body weight Mean” value ([3]; day 11, group mean) was 24.47 g, the “body weight Mean” value ([3]; day 12, group mean) was 24.59 g and the “body weight Mean” value ([3]; day 13, group mean) was 24.59 g. The “body weight Mean” value ([3]; day 14, group mean) was 24.73 g, the “body weight Mean” value ([3]; day 15, group mean) was 25.31 g and the “reduction of immobility time in FST” value (mice; acute, 1.25 mg/kg i.p., 60 min before test) was “approximately 33%”. The “effect of WAY-100635 on the antidepressant-like action of the compound in FST” value (mice; compound 1.25 mg/kg i.p. + WAY-100635 0.3 mg/kg s.c.) was “attenuation of the anti-immobility effect” and the “effect on immobility time in FST after repeated administration” value (mice; i.p. once daily for 13 consecutive days, AZ-853 0.625 mg/kg, AZ-861 1.25 mg/kg) was “decreased the immobility time”.
